Test results taken from patent US11045457B2, “Piperidinyl-3-(aryloxy)propanamides and propanoates” (priority 2018, dated 2021).

Legend:
SSTR4 [1] = target: T1, SSTR4 (Homo sapiens (Human), UniProt P31391); test: SSTR4 I-125 somatostatin competition binding assay (membranes from CHO-K1 cells overexpressing SSTR4); settings: competition with I-125 labeled somatostatin
SSTR1 = SSTR1 (Homo sapiens (Human), UniProt P30872); test: SSTR1 I-125 somatostatin competition binding assay for selectivity versus SSTR4 (membranes from CHO-K1 cells overexpressing SSTR1); settings: competition with I-125 labeled somatostatin, CHO-K1 SSTR1 membranes;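 further: Filter-based radioligand binding, bound label counted by scintillation after 60 min incubation at room temperature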
Protocol: Membranes from CHO-K1 cells overexpressing SSTR1 are purchased from Perkin Elmer (catalog number ES-520-M400UA). […] Then 10 μg of SSTR1 membranes in 50 μL assay buffer are added per well. The plate is incubated for 60 minutes at room temperature. […] The contents of the assay plate are transferred to filters with a TomTech harvester and washed 5 times with 20 mM HEPES, 100 mM NaCl. […] The scintillator sheets are melted to the filters using a heat block. The filters are then read in a MicroBeta scintillation counter. Binding Ki curves are generated using Activity Base for Screening Data Management and the results are reported as pIC50.

SSTR4 [2] = target: T1, SSTR4; test: Inhibition of forskolin stimulated cAMP in CHO-K1 cells overexpressing SSTR4; format: cell-based
How it was run: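 Read-out is a HTRF LANCE Ultra cAMP competition using Eu-labelled streptavidin and biotin-cAMP, incubated 60 min at room temperature. It followed a 30 min room-temperature exposure of Kreb's Ringer-washed cells to compound plus forskolin. Potency is expressed as pEC50.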

SSTR1, sequence (P30872 whole entry): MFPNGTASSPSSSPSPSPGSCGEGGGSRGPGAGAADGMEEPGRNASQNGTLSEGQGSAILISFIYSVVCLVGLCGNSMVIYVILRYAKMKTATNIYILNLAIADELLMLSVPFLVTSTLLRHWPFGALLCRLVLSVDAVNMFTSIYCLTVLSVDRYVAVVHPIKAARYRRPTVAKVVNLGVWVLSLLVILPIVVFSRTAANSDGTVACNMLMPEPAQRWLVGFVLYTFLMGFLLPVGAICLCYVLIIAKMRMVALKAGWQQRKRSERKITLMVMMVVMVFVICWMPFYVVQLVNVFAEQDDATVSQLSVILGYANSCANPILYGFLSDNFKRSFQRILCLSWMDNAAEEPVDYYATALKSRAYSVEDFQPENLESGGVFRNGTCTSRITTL
T1 sequence (P31391 whole entry): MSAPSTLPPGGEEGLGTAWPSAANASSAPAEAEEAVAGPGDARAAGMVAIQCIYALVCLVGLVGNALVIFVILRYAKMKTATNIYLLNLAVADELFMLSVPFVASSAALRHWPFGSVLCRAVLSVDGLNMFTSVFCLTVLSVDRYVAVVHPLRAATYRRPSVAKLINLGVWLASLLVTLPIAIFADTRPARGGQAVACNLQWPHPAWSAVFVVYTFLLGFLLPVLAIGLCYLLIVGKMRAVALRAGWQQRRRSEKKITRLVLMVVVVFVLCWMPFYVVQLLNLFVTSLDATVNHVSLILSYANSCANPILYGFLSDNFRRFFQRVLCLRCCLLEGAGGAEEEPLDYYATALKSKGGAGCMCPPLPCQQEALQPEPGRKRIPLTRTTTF

Row | SMILES | SSTR4 Binding pIC50 (SSTR4 [1]) | SSTR1 Binding pIC50 (SSTR1) | SSTR4 Activity pEC50 (SSTR4 [2])
1 | Cc1ccccc1[C@@H]1CN(C)CC[C@H]1NC(=O)C(C)(C)COc1ncccc1C(F)(F)F (relative stereo) [Example 161, 2,2-dimethyl-N-(trans-1-methyl-3-(o-tolyl)piperidin-4-yl)-3-((3-(trifluoromethyl)pyridin-2-yl)oxy)propanamide] | 7.7 | 6.5 | 9.1
2 | CN1CC[C@H](NC(=O)C(C)(C)COc2ncccc2C(F)(F)F)[C@H](c2ccccc2)C1 (relative stereo) [Example 163, 2,2-dimethyl-N-(cis-1-methyl-3-phenylpiperidin-4-yl)-3-((3-(trifluoromethyl)pyridin-2-yl)oxy)propanamide] | 6.1 | 5.2 | 7.3
3 | C[C@@H]1CN(C)C[C@H]1NC(=O)C(C)(C)COc1ncccc1OC(F)(F)F (relative stereo) [Example 180, N-(trans-1,4-dimethylpyrrolidin-3-yl)-2,2-dimethyl-3-((3-(trifluoromethoxy)pyridin-2-yl)oxy)propanamide] | 6.5 | 5.4 | 7.6
4 | C[C@@H]1CN(C)CC[C@H]1NC(=O)C(C)(C)COc1ccccc1Cl (relative stereo) [Example 186, trans-3-(2-chlorophenoxy)-N-(1,3-dimethylpiperidin-4-yl)-2,2-dimethylpropanamide] | 7.4 | 5.5 | 8.1
5 | CN1CCC(NC(=O)C(C)(C)COc2ncccc2C(F)(F)F)CC1 [Example 41, 2,2-dimethyl-N-(1-methylpiperidin-4-yl)-3-((3-(trifluoromethyl)pyridin-2-yl)oxy)propanamide] | 6.4 | 4.2 | 7.4
6 | CN1CCC(NC(=O)C(C)(C)COc2ncccc2C2CC2)CC1 [Example 47, 3-((3-cyclopropylpyridin-2-yl)oxy)-2,2-dimethyl-N-(1-methylpiperidin-4-yl)propanamide] | 7.1 | 4.8 | 8.1
7 | CN1CC[C@@H](NC(=O)C(C)(C)COc2ncccc2C2CC2)C1 [Example 53, (R)-3-((3-cyclopropylpyridin-2-yl)oxy)-2,2-dimethyl-N-(1-methylpyrrolidin-3-yl)propanamide] | 6.6 | 4.6 | 7.4
8 | CN1CCC(NC(=O)C(C)(C)COc2ccccc2C(F)(F)F)CC1 [Example 64, 2,2-dimethyl-N-(1-methylpiperidin-4-yl)-3-(2-(trifluoromethyl)phenoxy)propanamide] | 7.0 | 5.1 | 7.9
9 | CN1CC[C@@H](NC(=O)C(C)(C)COc2ccccc2C(F)(F)F)C1 [Example 65, (R)-2,2-dimethyl-N-(1-methylpyrrolidin-3-yl)-3-(2-(trifluoromethyl)phenoxy)propanamide] | 7.0 | 5.1 | 7.9
10 | CN1CCC(NC(=O)C(C)(C)COc2ccccc2Cl)CC1 [Example 66, 3-(2-chlorophenoxy)-2,2-dimethyl-N-(1-methylpiperidin-4-yl)propanamide] | 7.0 | 4.9 | 7.7
11 | CN1CCC(NC(=O)C(C)(C)COc2ccccc2Br)CC1 [Example 67, 3-(2-bromophenoxy)-2,2-dimethyl-N-(1-methylpiperidin-4-yl)propanamide] | 7.4 | 5.1 | 8.1
12 | CN1CC[C@@H](NC(=O)C(C)(C)COc2ccccc2Cl)C1 [Example 68, (R)-3-(2-chlorophenoxy)-2,2-dimethyl-N-(1-methylpyrrolidin-3-yl)propanamide] | 6.8 | 4.6 | 7.5
13 | CN1CC[C@@H](NC(=O)C(C)(C)COc2ccccc2Br)C1 [Example 69, (R)-3-(2-bromophenoxy)-2,2-dimethyl-N-(1-methylpyrrolidin-3-yl)propanamide] | 7.2 | 5.2 | 8.4
14 | CN1CCC(NC(=O)C(C)(C)COc2ccccc2C2CC2)CC1 [Example 70, 3-(2-cyclopropylphenoxy)-2,2-dimethyl-N-(1-methylpiperidin-4-yl)propanamide] | 7.6 | 5.5 | 8.4
15 | CN1CC[C@@H](NC(=O)C(C)(C)COc2ccccc2C2CC2)C1 [Example 71, (R)-3-(2-cyclopropylphenoxy)-2,2,-dimethyl-N-(1-methylpyrrolidin-3-yl)propanamide] | 7.3 | 5.3 | 8.3
16 | CCc1ccccc1OCC(C)(C)C(=O)NC1CCN(C)CC1 [Example 72, 3-(2-ethylphenoxy)-2,2-dimethyl-N-(1-methylpiperidin-4-yl)propanamide] | 7.1 | 4.8 | 8.1
17 | Cc1ccccc1OCC(C)(C)C(=O)NC1CCN(C)CC1 [Example 76, 2,2-dimethyl-N-(1-methylpiperidin-4-yl)-3-(o-tolyloxy)propanamide] | 6.7 | 4.7 | 7.7
18 | CN1CCC(NC(=O)C(C)(C)COc2ncccc2OC(F)(F)F)CC1 [Example 92, 2,2-dimethyl-N-(1-methylpiperidin-4-yl)-3-((3-(trifluoromethoxy)pyridin-2-yl)oxy)propanamide] | 6.8 | 4.8 | 7.7
19 | CN1CCC(NC(=O)C(C)(C)COc2ccccc2OC(F)(F)F)CC1 [Example 102, 2,2-dimethyl-N-(1-methylpiperidin-4-yl)-3-(2-(trifluoromethoxy)phenoxy)propanamide] | 7.8 | 5.6 | 8.7
20 | CCc1ccccc1OCC(C)(C)C(=O)NC1CCN(CC(=O)c2ccc(Cl)cc2)CC1 [Example 104, N-(1-(2-(4-chlorophenyl)-2-oxoethyl)piperidin-4-yl)-3-(2-ethylphenoxy)-2,2-dimethylpropanamide] | 8.0 | 4.8 | 9.2
21 | CN1CCC(NC(=O)C(C)(C)COc2ncccc2C(F)(F)F)C2(CC2)C1 (stereo not drawn) [Example 114, 2,2-dimethyl-N-(5-methyl-5-azaspiro[2.5]octan-8-yl)-3-((3-(trifluoromethyl)pyridin-2-yl)oxy)propanamide] | 6.9 | 4.6 | 8.0
22 | CN1CC[C@H](NC(=O)C(C)(C)COc2ncccc2C(F)(F)F)[C@@H](F)C1 [Example 117, N-((3S,4S)-3-fluoro-1-methylpiperidin-4-yl)-2,2-dimethyl-3-((3-(trifluoromethyl)pyridin-2-yl)oxy)propanamide] | 6.7 | 4.5 | 7.6
23 | CN1CCC(NC(=O)C(C)(C)COc2ncccc2OC(F)(F)F)C2(CC2)C1 (stereo not drawn) [Example 119, 2,2-dimethyl-N-(5-methyl-5-azaspiro[2.5]octan-8-yl)-3-((3-(trifluoromethoxy)pyridin-2-yl)oxy)propanamide] | 7.3 | 5.0 | 9.0
24 | CN1CC[C@H](NC(=O)C(C)(C)COc2ncccc2C2CC2)[C@@H](F)C1 [Example 123, 3-((3-cyclopropylpyridin-2-yl)oxy)-N-((3S,4S)-3-fluoro-1-methylpiperidin-4-yl)-2,2-dimethylpropanamide] | 7.2 | 4.9 | 7.8
25 | CN1CC[C@H](NC(=O)C(C)(C)COc2ncccc2OC(F)(F)F)[C@@H](F)C1 [Example 124, N-((3S,4S)-3-fluoro-1-methylpiperidin-4-yl)-2,2-dimethyl-3-((3-(trifluoromethoxy)pyridin-2-yl)oxy)propanamide] | 7.4 | 5.1 | 7.6
26 | CN1CC(NC(=O)C(C)(C)COc2ncccc2C(F)(F)F)C2(CC2)C1 (stereo not drawn) [Example 138, 2,2-dimethyl-N-(5-methyl-5-azaspiro[2.4]heptan-7-yl)-3-((3-(trifluoromethyl)pyridin-2-yl)oxy)propanamide] | 7.2 | 5.7 | 8.0
27 | Cc1cccnc1OCC(C)(C)C(=O)N[C@H]1CCN(C)C[C@@H]1C [Example 143, N-((3S,4S)-1,3-dimethylpiperidin-4-yl)-2,2-dimethyl-3-((3-methylpyridin-2-yl)oxy)propanamide] | 6.9 | 4.8 | 7.9
28 | C[C@@H]1C[C@H](NC(=O)C(C)(C)COc2ncccc2C2CC2)CCN1C [Example 147, 3-((3-cyclopropylpyridin-2-yl)oxy)-N-((2R,4R)-1,2-dimethylpiperidin-4-yl)-2,2-dimethylpropanamide] | 7.5 | 5.3 | 8.6
29 | CN1C[C@H](NC(=O)C(C)(C)COc2ncccc2C(F)(F)F)C2(CC2)C1 [Example 148, (R)-2,2-dimethyl-N-(5-methyl-5-azaspiro[2.4]heptan-7-yl)-3-((3-(trifluoromethyl)pyridin-2-yl)oxy)propanamide] | 7.4 | 5.8 | 8.1
